Drawing on US11613538B2, “Method of inhibiting or reducing a viral infection” (PTC Therapeutics, Inc., priority 2009, dated 2023), this text covers EC50 for 65 compounds.

Structures are written as SMILES. pEC50: −log10 of the molar value.

For this experiment, the system named is hypoxia-induced VEGF production in HeLa cells. As to the kind of experiment: cells. It is filed as cell-based, human. The settings on record: Homo sapiens, HeLa.
As usually defined, the pEC50 is −log10 of the EC50, conventionally taken in molar units. Lower therefore signals a large EC50. `COc1cc(C2c3[nH]c4ccc(Cl)cc4c3CCN2C(=O)Oc2ccc(Cl)cc2)ccc1OCCCN1CCOCC1` (centres unmarked) [Compound 1093] gave a pEC50 of 7.40 to 8.10.
The result for `COc1cc(C2c3[nH]c4ccc(Cl)cc4c3CCN2C(=O)Oc2ccc(Cl)cc2)ccc1OCCCCN1CCOCC1` (centres unmarked) [Compound 1094] reads 7.40 to 8.10.
`COc1ccc(C2c3[nH]c4ccc(Cl)cc4c3CCN2C(=O)Oc2ccc(Cl)cc2)cc1OCCN1CCOCC1` (centres unmarked) [Compound 1095]: the negative logarithm of the EC50 (pEC50) was 6.00 to 6.70.
On to `COc1ccc(C2c3[nH]c4ccc(Cl)cc4c3CCN2C(=O)Oc2ccc(Cl)cc2)cc1OCCCN1CCOCC1` (centres unmarked) [Compound 1096], for which the pEC50 was 6.00 to 6.70.
`COc1ccc(C2c3[nH]c4ccc(Cl)cc4c3CCN2C(=O)Oc2ccc(Cl)cc2)cc1OCCCCN1CCOCC1` (centres unmarked) [Compound 1097] showed a pEC50 of 6.70 to 7.40.
For `O=C(Oc1ccc(Cl)cc1)N1CCc2c([nH]c3ccc(Cl)cc23)C1c1ccc(OCCCN2CCC(CO)C2)cc1` (centres unmarked) [Compound 1098] the value was 7.40 to 8.10; for `CN1CCC(COc2ccc(C3c4[nH]c5ccc(Cl)cc5c4CCN3C(=O)Oc3ccc(Cl)cc3)cc2)CC1` (centres unmarked) [Compound 1099], 7.40 to 8.10.
`COC(=O)N1CCc2c([nH]c3ccc(Cl)cc23)C1c1ccc(OCCCN2CCOCC2)cc1` (centres unmarked) [Compound 1100] had a pEC50 of 7.40 to 8.10.
The result for `COC(=O)N1CCc2c([nH]c3ccc(Cl)cc23)C1c1ccc(OCCCN2CCN(C)CC2)cc1` (centres unmarked) [Compound 1101] reads 6.70 to 7.40.
`CC(C)OC(=O)N1CCc2c([nH]c3ccc(Cl)cc23)C1c1ccc(OCCCN2CCOCC2)cc1` (centres unmarked) [Compound 1102] had a negative logarithm of the EC50 (pEC50) of over 8.10.
Take `CC(C)OC(=O)N1CCc2c([nH]c3ccc(Cl)cc23)C1c1ccc(OCCCN2CCN(C)CC2)cc1` (centres unmarked) [Compound 1103]: the negative logarithm of the EC50 (pEC50) was 7.40 to 8.10.
The result for `CC(C)COC(=O)N1CCc2c([nH]c3ccc(Cl)cc23)C1c1ccc(OCCCN2CCN(C)CC2)cc1` (centres unmarked) [Compound 1104] reads 7.40 to 8.10; that for `CCCOC(=O)N1CCc2c([nH]c3ccc(Cl)cc23)C1c1ccc(OCCCN2CCOCC2)cc1` (centres unmarked) [Compound 1105], over 8.10.
For `O=C(OCc1ccccc1)N1CCc2c([nH]c3ccc(Cl)cc23)C1c1ccc(OCCCN2CCOCC2)cc1` (centres unmarked) [Compound 1106] the value was over 8.10; for `O=C(OCc1ccccc1)N1CCc2c([nH]c3ccc(Cl)cc23)C1c1ccc(OCCCn2ccnn2)cc1` (centres unmarked) [Compound 1107], over 8.10; for `COc1ccc(OC(=O)N2CCc3c([nH]c4ccc(Cl)cc34)C2c2ccc(OCCCN3CCN(C)CC3)cc2)cc1` (centres unmarked) [Compound 1108], 7.40 to 8.10.
Consider `COCCOC(=O)N1CCc2c([nH]c3ccc(Cl)cc23)C1c1ccc(OCCCO)cc1` (centres unmarked) [Compound 1109], for which the negative logarithm of the EC50 (pEC50) is over 8.10.
`O=C(Oc1ccc(Cl)cc1)N1CCc2c([nH]c3ccc(Cl)cc23)C1c1ccc(OCCCO)cc1` (centres unmarked) [Compound 1111] gave a pEC50 of over 8.10.
The result for `CCOC(=O)N1CCc2c([nH]c3ccc(Cl)cc23)C1c1cccc(OCCCN2CCN(C)CC2)c1` (centres unmarked) [Compound 1112] reads under 6.00.
Compound `CN1CCN(CCCOc2cccc(C3c4[nH]c5ccc(Cl)cc5c4CCN3C(=O)Oc3ccc(F)cc3)c2)CC1` (centres unmarked) [Compound 1113] gave a pEC50 of 6.00 to 6.70.
The compound `CCOC(=O)N1CCc2c([nH]c3ccc(Cl)cc23)C1c1cccc(OCCCN2CCOCC2)c1` (centres unmarked) [Compound 1114] gave a negative-log EC50 (pEC50) of 7.40 to 8.10.
For the compound `O=C(Oc1ccc(F)cc1)N1CCc2c([nH]c3ccc(Cl)cc23)C1c1cccc(OCCCN2CCOCC2)c1` (centres unmarked) [Compound 1115], the negative-log EC50 (pEC50) was 7.40 to 8.10.
`CCOC(=O)N1CCc2c([nH]c3ccc(Cl)cc23)C1c1cccc(OCCCN2CCSCC2)c1` (centres unmarked) [Compound 1116] gave a pEC50 of 7.40 to 8.10.
For `O=C(Oc1ccc(F)cc1)N1CCc2c([nH]c3ccc(Cl)cc23)C1c1cccc(OCCCN2CCSCC2)c1` (centres unmarked) [Compound 1117], the pEC50 was 7.40 to 8.10.
For `CCOC(=O)N1CCc2c([nH]c3ccc(Cl)cc23)C1c1cccc(OCCCN(CCOC)CCOC)c1` (centres unmarked) [Compound 1118] the value was 6.00 to 6.70.
In the case of `COCCN(CCCOc1cccc(C2c3[nH]c4ccc(Cl)cc4c3CCN2C(=O)Oc2ccc(F)cc2)c1)CCOC` (centres unmarked) [Compound 1119], the pEC50 is 6.70 to 7.40.
The result for `CCOC(=O)N1CCc2c([nH]c3ccc(Cl)cc23)C1c1cccc(OCCCN(C)CCOC)c1` (centres unmarked) [Compound 1120] reads 6.00 to 6.70.
For `COCCN(C)CCCOc1cccc(C2c3[nH]c4ccc(Cl)cc4c3CCN2C(=O)Oc2ccc(F)cc2)c1` (centres unmarked) [Compound 1121] the value was under 6.00; for `CCOC(=O)N1CCc2c([nH]c3ccc(Cl)cc23)C1c1cccc(OCCCn2ccnc2)c1` (centres unmarked) [Compound 1122], under 6.00; for `CCOC(=O)N1CCc2c([nH]c3ccc(Cl)cc23)C1c1cccc(OCCCn2ccnn2)c1` (centres unmarked) [Compound 1124], 6.00 to 6.70.
For `COc1cc(C2c3[nH]c4ccc(Cl)cc4c3CCN2C(=O)Oc2ccccc2)ccc1OCCCN1CCOCC1` (centres unmarked) [Compound 1130] the value was 7.40 to 8.10; for `COc1ccc(OC(=O)N2CCc3c([nH]c4ccc(Cl)cc34)C2c2ccc(OCCCN3CCOCC3)c(OC)c2)cc1` (centres unmarked) [Compound 1131], 7.40 to 8.10; for `COc1cc(C2c3[nH]c4ccc(Cl)cc4c3CCN2C(=O)Oc2ccc(C)cc2)ccc1OCCCN1CCOCC1` (centres unmarked) [Compound 1132], 7.40 to 8.10.
Compound `COc1cc(C2c3[nH]c4ccc(Cl)cc4c3CCN2C(=O)Oc2ccc(F)cc2)ccc1OCCCN1CCOCC1` (centres unmarked) [Compound 1133] showed a pEC50 of over 8.10.
The result for `Cc1ccc(C(=O)N2CCc3c([nH]c4ccc(Cl)cc34)C2c2ccc(OCCCn3cncn3)cc2)cc1` (centres unmarked) [Compound 1135] reads 7.40 to 8.10.
For `O=C(c1ccc(Cl)cc1)N1CCc2c([nH]c3ccc(Cl)cc23)C1c1ccc(OCCCN2CCOCC2)cc1` (centres unmarked) [Compound 1136] the value was 6.70 to 7.40; for `O=C(c1ccc(F)cc1)N1CCc2c([nH]c3ccc(Cl)cc23)C1c1ccc(OCCCn2cncn2)cc1` (centres unmarked) [Compound 1138], 7.40 to 8.10; for `O=C(c1ccccc1)N1CCc2c([nH]c3ccc(Cl)cc23)C1c1ccc(OCCCn2cncn2)cc1` (centres unmarked) [Compound 1139], 7.40 to 8.10.
The result for `O=C(c1ccccc1)N1CCc2c([nH]c3ccc(Cl)cc23)C1c1ccc(OCCCN2CCOCC2)cc1` (centres unmarked) [Compound 1140] reads 6.70 to 7.40; that for `O=C(C1CC1)N1CCc2c([nH]c3ccc(Cl)cc23)C1c1ccc(OCCCN2CCOCC2)cc1` (centres unmarked) [Compound 1141], 6.70 to 7.40; that for `O=C(C1CC1)N1CCc2c([nH]c3ccc(Cl)cc23)C1c1ccc(OCCCn2cncn2)cc1` (centres unmarked) [Compound 1142], 7.40 to 8.10.
In the case of `COc1ccc(OC(=O)N2CCc3c([nH]c4ccc(Cl)cc34)C2c2ccc(OCCCn3nccn3)c(OC)c2)cc1` (centres unmarked) [Compound 1146], the negative-log EC50 (pEC50) was 7.40 to 8.10.
Take `COc1cc(C2c3[nH]c4ccc(Cl)cc4c3CCN2C(=O)Oc2ccc(F)cc2)ccc1OCCCn1ccnn1` (centres unmarked) [Compound 1147]: the negative-log EC50 (pEC50) is 7.40 to 8.10.
In turn, `COc1cc(C2c3[nH]c4ccc(Cl)cc4c3CCN2C(=O)Oc2ccc(F)cc2)ccc1OCCCn1nccn1` (centres unmarked) [Compound 1148] showed a negative-log EC50 (pEC50) of 7.40 to 8.10.
For `COc1ccc(C2c3[nH]c4ccc(Cl)cc4c3CCN2C(=O)OCCn2nccn2)cc1` (centres unmarked) [Compound 1156] the value was 7.40 to 8.10.
As to `COc1ccc(C2c3[nH]c4ccc(Cl)cc4c3CCN2C(=O)OCCn2ccnn2)cc1` (centres unmarked) [Compound 1157], the pEC50 was 6.00 to 6.70.
As to `COc1ccc(C2c3[nH]c4ccc(Cl)cc4c3CCN2C(=O)OCCn2cncn2)cc1` (centres unmarked) [Compound 1158], the pEC50 is under 6.00.
As to `CC1(C)OC[C@H](CCOc2ccc(C3c4[nH]c5ccc(Cl)cc5c4CCN3C(=O)Oc3ccc(Cl)cc3)cc2)O1` (some centres unmarked) [Compound 1162], the pEC50 is over 8.10.
`CCOC(=O)N1CCc2c([nH]c3ccc(Cl)cc23)C1c1ccc(OCC[C@H]2COC(C)(C)O2)cc1` (some centres unmarked) [Compound 1163] showed a pEC50 of over 8.10.
`CCCOC(=O)N1CCc2c([nH]c3ccc(Cl)cc23)C1c1ccc(OCC[C@H]2COC(C)(C)O2)cc1` (some centres unmarked) [Compound 1164] had a negative logarithm of the EC50 (pEC50) of over 8.10.
For `CC(C)COC(=O)N1CCc2c([nH]c3ccc(Cl)cc23)C1c1ccc(OCC[C@H]2COC(C)(C)O2)cc1` (some centres unmarked) [Compound 1165] the value was over 8.10; for `CC#CCOC(=O)N1CCc2c([nH]c3ccc(Cl)cc23)C1c1ccc(OCC[C@H]2COC(C)(C)O2)cc1` (some centres unmarked) [Compound 1166], over 8.10; for `CC(C)(C)COC(=O)N1CCc2c([nH]c3ccc(Cl)cc23)C1c1ccc(OCC[C@H]2COC(C)(C)O2)cc1` (some centres unmarked) [Compound 1167], over 8.10.
Consider `O=C(Oc1ccc(Cl)cc1)N1CCc2c([nH]c3ccc(Cl)cc23)C1c1ccc(OCC[C@H](O)CO)cc1` (some centres unmarked) [Compound 1172], for which the negative logarithm of the EC50 (pEC50) is over 8.10.
The result for `CCOC(=O)N1CCc2c([nH]c3ccc(Cl)cc23)C1c1ccc(OCC[C@H](O)CO)cc1` (some centres unmarked) [Compound 1173] reads over 8.10; that for `CCCOC(=O)N1CCc2c([nH]c3ccc(Cl)cc23)C1c1ccc(OCC[C@H](O)CO)cc1` (some centres unmarked) [Compound 1174], 7.40 to 8.10; that for `CC(C)COC(=O)N1CCc2c([nH]c3ccc(Cl)cc23)C1c1ccc(OCC[C@H](O)CO)cc1` (some centres unmarked) [Compound 1175], 7.40 to 8.10.
For `CC#CCOC(=O)N1CCc2c([nH]c3ccc(Cl)cc23)C1c1ccc(OCC[C@H](O)CO)cc1` (some centres unmarked) [Compound 1176] the value was over 8.10.
As for `CC(C)(C)COC(=O)N1CCc2c([nH]c3ccc(Cl)cc23)C1c1ccc(OCC[C@H](O)CO)cc1` (some centres unmarked) [Compound 1177], the pEC50 is over 8.10.
The result for `O=C(Oc1ccc(Cl)cc1)N1CCc2c([nH]c3ccc(Cl)cc23)C1c1ccc(OCCCNCCO)cc1` (centres unmarked) [Compound 1183] reads over 8.10; that for `O=C(Oc1ccc(Cl)cc1)N1CCc2c([nH]c3ccc(Cl)cc23)C1c1ccc(OCCCN(CCO)CCO)cc1` (centres unmarked) [Compound 1184], over 8.10.
`CC(C)(C)OC(=O)N1CCc2c([nH]c3ccc(Cl)cc23)C1c1ccc(OCCCn2ccnn2)cc1` (centres unmarked) [Compound 1185] showed a pEC50 of over 8.10.
For `CC(C)(C)OC(=O)N1CCc2c([nH]c3ccc(Cl)cc23)C1c1ccc(OCCCn2nccn2)cc1` (centres unmarked) [Compound 1186] the value was over 8.10; for `CC(C)(C)OC(=O)N1CCc2c([nH]c3ccc(Cl)cc23)C1c1ccc(OCCCn2cnnc2)cc1` (centres unmarked) [Compound 1187], over 8.10.
The result for `CC(C)(C)OC(=O)N1CCc2c([nH]c3ccc(Cl)cc23)C1c1ccc(OCCCn2cncn2)cc1` (centres unmarked) [Compound 1188] reads over 8.10.
